Measurements from publication PMC6287599, “2,6-Bis(2-Benzimidazolyl)Pyridine (BBP) Is a Potent and Selective Inhibitor of Small Conductance Calcium-Activated Potassium (SK) Channels” (Frontiers in Pharmacology, 2018).
Read-outs that look alike come from different tables or passages of the source. Positions of bridges follow the written chain, without caps; N, C: chain ends. No end group written: not given here.

Tests used:
[1] = target: T1, hBK (Homo sapiens, UniProt Q12791); assay: Manual whole cell patch clamp, HEK293 transiently transfected with hBK; format: cell-based; settings: paxilline 3 μM, after BBP 1 μM
T1 construct: expressed in transfected cells; host or cells: HEK293 (transient, co-transfected with eGFP)
Description: HEK293 cells were transiently co-transfected with the plasmid of interest (hBK, hSK1, hSK2, hSK3 WT, rSK3 H491N, or hIK) and eGFP using standard Lipofectamine™ 2000 (Thermo Fisher Scientific, Waltham, Massachussets, USA) transfection protocols. After transfection, cells were incubated overnight before the experiments.
Manual patch clamp experiments were performed at room temperature in the whole cell configuration with a HEKA EPC9 amplifier and the Patchmaster software (HEKA Elektronik, Ludwigshafen, Germany). All currents were elicited every 2 s using an incremental 200 ms voltage-ramp protocol starting at −80 mV and finishing at +80 mV from a holding potential of 0 mV. […]
To assess the effect of BBP on other calcium-activated potassium channels (hBK, hSK3 WT, rSK3 H491N, and hIK), each individual current was first normalized to its cell size using membrane's capacitance (pA/pF) before statistical analysis. […] Statistical significance between saline and the effect of both BBP and the corresponding reference compound was determined for each channel using one-way ANOVA analysis. […]
After testing BBP on the three SK channel subtypes, we decided to explore whether other calcium-activated potassium channels were affected by the compound. […] Finally, a positive control was used to inhibit the remaining current and quantify the total effect of BBP. […]

[2] = target: T2, rSK3 H491N (Rattus norvegicus, UniProt P70605, H486N); settings: cited from earlier work
T2 construct: expressed in transfected cells; host or cells: HEK293 (transient, co-transfected with eGFP)

T1 sequence (Q12791 whole entry): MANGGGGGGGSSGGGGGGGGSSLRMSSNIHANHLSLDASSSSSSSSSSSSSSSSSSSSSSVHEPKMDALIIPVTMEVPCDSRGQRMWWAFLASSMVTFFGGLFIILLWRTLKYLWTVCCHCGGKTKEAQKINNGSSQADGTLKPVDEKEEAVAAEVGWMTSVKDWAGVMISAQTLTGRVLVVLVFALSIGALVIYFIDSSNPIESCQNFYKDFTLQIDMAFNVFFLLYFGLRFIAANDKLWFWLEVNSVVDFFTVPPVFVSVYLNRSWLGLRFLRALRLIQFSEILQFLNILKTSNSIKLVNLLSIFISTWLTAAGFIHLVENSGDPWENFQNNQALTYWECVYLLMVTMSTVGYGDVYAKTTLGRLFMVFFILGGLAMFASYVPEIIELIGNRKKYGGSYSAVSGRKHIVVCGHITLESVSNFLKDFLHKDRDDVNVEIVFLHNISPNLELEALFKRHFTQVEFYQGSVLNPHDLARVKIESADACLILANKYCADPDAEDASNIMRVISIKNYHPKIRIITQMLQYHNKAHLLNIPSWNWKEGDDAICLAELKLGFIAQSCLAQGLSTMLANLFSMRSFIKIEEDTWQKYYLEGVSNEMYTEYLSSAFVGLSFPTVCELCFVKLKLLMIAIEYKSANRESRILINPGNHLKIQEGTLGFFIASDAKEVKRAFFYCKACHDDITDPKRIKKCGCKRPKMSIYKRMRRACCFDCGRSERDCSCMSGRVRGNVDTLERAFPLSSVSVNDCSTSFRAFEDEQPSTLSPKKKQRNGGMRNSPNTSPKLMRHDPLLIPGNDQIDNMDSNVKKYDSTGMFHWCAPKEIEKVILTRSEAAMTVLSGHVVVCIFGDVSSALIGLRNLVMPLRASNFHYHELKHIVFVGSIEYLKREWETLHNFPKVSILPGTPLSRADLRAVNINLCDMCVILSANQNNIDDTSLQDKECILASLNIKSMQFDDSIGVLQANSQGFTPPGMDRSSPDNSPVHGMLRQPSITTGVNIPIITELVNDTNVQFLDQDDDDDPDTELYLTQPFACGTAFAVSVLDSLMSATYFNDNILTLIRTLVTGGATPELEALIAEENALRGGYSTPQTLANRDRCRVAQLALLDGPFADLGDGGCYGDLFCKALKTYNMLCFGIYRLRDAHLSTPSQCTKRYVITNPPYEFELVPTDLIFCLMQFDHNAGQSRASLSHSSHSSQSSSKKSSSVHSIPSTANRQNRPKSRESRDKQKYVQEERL

Row | Molecule | Sensitivity of rSK3 H491N mutant to blocker ([2]; ref Lamy et al., 2010) | other results
1 | CC(C)(O)[C@H]1O[C@H]2CC[C@@]3(C)[C@@](O)(CC[C@H]4Cc5c([nH]c6ccccc56)[C@@]43C)C2=CC1=O [paxilline, reference compound] |  | Effect on remaining hBK current (reference) [1]: totally inhibited
2 | COc1cc2c3cc1Oc1cc(ccc1O)C[C@@H]1c4c(cc(OC)c(O)c4Oc4ccc(cc4)C[C@@H]3N(C)CC2)CC[N+]1(C)C [D-tubocurarine] | insensitive | 
3 | apamin (CNCKAPETALCARRCQQH-NH2; disulfide 1-11, 3-15; ends not checked; UniProt P01500 28-45, looked up) | insensitive | 
4 | c1cc2cc(c1)C[n+]1ccc(c3ccccc31)NCc1ccc(cc1)CNc1cc[n+](c3ccccc13)C2 [UCL1684] |  | Sensitivity of rSK3 H491N mutant to blocker [2]: insensitive
